Legend:
[1] = molecular target: T1, covalent topoisomerase-DNA cross-links in CHO cells (Cricetulus griseus, UniProt Q07050, S505G); assay: In vivo K+-SDS co-precipitation assay for protein-DNA cross-links; type: cell-based, Chinese hamster; conditions: FIG. 5
T1 construct: endogenous in cells; host or cells: Chinese hamster ovary CHO cells
Source text: In vivo K^+-SDS co-precipitation assay for protein-DNA cross-links. The K^+-SDS co-precipitation assay as described previously (Chen, Y. N., et al., J. Biol. Chem., 265:10073–10080 (1990)) was used to quantify the formation of covalent topoisomerase-DNA cross-links in drug-treated cells.
Briefly, the DNA in logarithmic growing Chinese hamster CHO cells was overnight-labeled in medium containing 1 μCi/ml of [mehtyl-^3H] thymidine. These cells were then trypsinized and diluted in fresh medium before aliquoted into a 24-well plate. After overnight incubation, the labeled cells were treated with various concentrations of drugs for 30 min, washed with phosphate-buffered saline once, and lysed by adding 1 ml of prewarmed lysis solution (1.25% SDS, 5 mM EDTA, 0.4 mg/ml salmon sperm DNA, pH 8.0, 65° C.).
Following shearing chromosomal DNA by passing the lysate through a 19-gauge needle, the sample was transferred to a tube containing 0.25 ml of 325 mM KCl. The sample was vortexed vigorously for 10 s, cooled on ice for 10 min and centrifuged at 3000 rpm for 10 min at 4° C.
The pellet was then resuspended in 1 ml of a wash solution (100 mM KCl, 1 mM EDTA, 0.1 mg/ml salmon sperm DNA, 10 mM Tris-HCl, pH 8.0) and placed at 65° C. for 10 min with occasional mixing. The sample was again cooled on ice for 10 min and centrifuged at 3000 rpm for 10 min at 4° C. After the pellet from each sample was washed again, the pellet was finally resuspended in 0.2 ml of 65° C. water and added to 5 ml of scintillation fluid to determine radioactive counts.
The background precipitable counts were obtained by treating the lysate with proteinase K (400 μg/ml) at 65° C. for 2 h. Data are arithmetic means (±SD) of three determinations, and the background counts have been subtracted.

[2] = system: camptothecin-resistant, TOP1 mutant DC3F/C-10 cells
Description: Clonogenic Survival Assay. For a typical clonogenic survival experiment, stock cultures of exponentially growing cells were trypsinized, rinsed, and plated (5×10^5 cells per dish for DC3F and DC3F/C-10 cells; 1×10^6 cells for MCF-7 cells) into 100-mm petri dishes and incubated at 37° C. 18–24 h prior to experimental studies.
Following various experimental protocols with drug incubation and irradiation, cells were trypsinized, rinsed, counted, and plated for […] colony formation. Depending on the anticipated survival level, 10^2 to 10^5 cells were plated per dose point. When higher cell numbers were plated, large petri dishes were used to avoid possible cell-density effect (100-mm instead of 60-mm petri dishes for cell number≧5×10^4). Depending on the treatment protocols, an equivalent amount of DMSO was added into each of the control radiation alone dishes (final DMSO concentration <0.1%).
Following seven to fourteen days of incubation, colonies were fixed with methanol/acetic acid (3:1), stained with crystal violet. Colonies consisting of >50 cells were counted. All survival points were done in triplicate, and experiments were conducted a minimum of two times. Error bars shown in the figures represent standard deviations (SD) and are shown when larger than the symbol.
The DC3F/C-10 cell line was selected from the Chinese Hamster lung fibroblast DC3F cell line in the presence of 1 μM of camptothecin (Albright, N., Radiat. Res., 112:331–340 (1987), and Chen, Y. N., J. Biol. Chem., 265:10073–10080 (1990)). […] In an attempt to determine the importance of TOP1 in mediating the cytotoxic and radiosensitizing effects by INDO derivatives, clonogenic survival assays were performed in DC3F and DC3F/C10 cells.

[3] = system: human breast cancer MCF-7 cells; assay: Clonogenic survival assay, drug alone (cytotoxicity) in MCF-7 cells; type: cell-based; conditions: 1 μM camptothecin for 1 h, read graphically from FIG. 2
Description: (§1) Clonogenic Survival Assay. […] 18–24 h prior to experimental studies.
(§2) Colonies consisting of >50 cells were counted.

[4] = system: human breast cancer MCF-7 cells; assay: Clonogenic survival assay with radiation (radiosensitization) in MCF-7 cells; type: cell-based
Description: as §1, §2
(§3) Irradiation of Cells. Drug-treated and control cells in medium were irradiated using a cobalt-60 source (Eldorado 8; Theratronics, Canada) at a dose rate of 105 cGy/min.
(§4) Analysis of Survival Curves. Survival curves were corrected for cytotoxicity induced by drug alone treatment. Sensitization enhancement ratios (SERs) and standard deviations for survival curves were determined at 10% cell survival. Each SER was calculated by dividing the radiation dose to induce 10% cell survival in the absence of radiosensitizer with the radiation dose to induce 10% cell survival in the presence of radiosensitizer.
The updated programs developed by Dr. N. Albright (San Rafael, Calif.) (Albright, N., Radiat. Res., 112:331–340 (1987)) were used for curve fitting for MCF-7 cells with the linear quadratic (LQ) and the single hit multi-target (SHMT) models. Both the LQ and SHMT models gave qualitatively good fits. The fit with the SHMT model was used for the present study.

DC3F cells = assay: Radiosensitization in DC3F cells (clonogenic survival with radiation); type: cell-based, Chinese hamster
Description: as §1, §2, §3, §4

[5] = system: TOP1 mutant DC3F/C10 cells; assay: Radiosensitization in DC3F/C10 cells (clonogenic survival with radiation); type: cell-based, Chinese hamster; conditions: DC3F/C10 cells
Description: as §1, §2, §3, §4

purified human TOP1 = molecular target: T2, purified human TOP1 (Homo sapiens, UniProt P11387); assay: In vitro drug-stimulated TOP1 cleavage assay (pHOT1 plasmid nicking); type: biochemical; conditions: purified human TOP1; FIG. 4, 4C
T2 construct: purchased TopoGEN, Inc. (Columbus, Ohio)
T2 sequence (P11387 1-765): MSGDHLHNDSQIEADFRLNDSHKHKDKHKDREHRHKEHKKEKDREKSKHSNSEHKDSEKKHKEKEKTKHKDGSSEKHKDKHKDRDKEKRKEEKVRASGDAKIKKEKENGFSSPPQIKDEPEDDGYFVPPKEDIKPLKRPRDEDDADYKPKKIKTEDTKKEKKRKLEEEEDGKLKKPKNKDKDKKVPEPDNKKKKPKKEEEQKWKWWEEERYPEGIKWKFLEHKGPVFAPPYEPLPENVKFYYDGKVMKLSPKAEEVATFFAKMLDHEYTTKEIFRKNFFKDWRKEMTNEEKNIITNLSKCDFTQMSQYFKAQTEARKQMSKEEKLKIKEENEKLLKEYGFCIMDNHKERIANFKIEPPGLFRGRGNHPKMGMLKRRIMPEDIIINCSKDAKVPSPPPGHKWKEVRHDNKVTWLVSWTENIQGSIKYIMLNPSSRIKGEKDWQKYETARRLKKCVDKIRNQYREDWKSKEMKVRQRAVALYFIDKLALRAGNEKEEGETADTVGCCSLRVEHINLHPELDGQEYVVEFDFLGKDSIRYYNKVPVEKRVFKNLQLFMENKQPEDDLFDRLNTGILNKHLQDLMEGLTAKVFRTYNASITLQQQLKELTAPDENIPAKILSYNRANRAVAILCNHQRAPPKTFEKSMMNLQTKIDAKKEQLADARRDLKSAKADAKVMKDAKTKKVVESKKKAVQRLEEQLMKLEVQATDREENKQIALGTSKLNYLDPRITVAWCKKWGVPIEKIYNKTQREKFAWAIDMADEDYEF
Description: In vitro drug-stimulated TOP1 cleavage assay. Drug-stimulated DNA cleavage assay using purified human TOP1 was performed according to the protocol provided by TopoGEN Inc. (Columbus, Ohio) with modifications.
Briefly, supercoiled pHOT1 plasmid DNA (0.2 μg) was incubated with 1 unit of human TOP1 in cleavage buffer (50 mM Tris, pH 7.8, 50 mM KCl, 10 mM MgCl2, 1 mM dithiothreitol, 1 mM EDTA) in the presence of varying concentrations of the drug under study. Following a 30-min incubation at 37° C., the reactions were terminated by adding SDS to 1.0% and proteinase K to 200 μg/ml. The proteinase K treatment continued at 37° C. for 1 h. The sample was then mixed with loading dye (containing sucrose and bromphenol blue) and separated in 1% agarose gel in 0.08 M Tris-phosphate, 0.008 M EDTA, pH 8.0 buffer at room temperature for 16 h.
The gel was initially stained with ethidium bromide ([…]), washed and photographed under UV light. In order to separate the “nicked” from the “relaxed” DNA population, the gel was further run for 4 h in the presence of ethidium bromide before being photographed again under UV light. The photograph was scanned and the intensity of the nicked DNA of each lane was measured using the ImageJ program obtained from the National Institutes of Health (web site: rsb.info.nih.gov/ij/). The intensity of the nicked band of each lane was plotted after the background intensity (pHOT1+TOP1 lane) was subtracted.

T1 sequence (Q07050 2-767 S505G): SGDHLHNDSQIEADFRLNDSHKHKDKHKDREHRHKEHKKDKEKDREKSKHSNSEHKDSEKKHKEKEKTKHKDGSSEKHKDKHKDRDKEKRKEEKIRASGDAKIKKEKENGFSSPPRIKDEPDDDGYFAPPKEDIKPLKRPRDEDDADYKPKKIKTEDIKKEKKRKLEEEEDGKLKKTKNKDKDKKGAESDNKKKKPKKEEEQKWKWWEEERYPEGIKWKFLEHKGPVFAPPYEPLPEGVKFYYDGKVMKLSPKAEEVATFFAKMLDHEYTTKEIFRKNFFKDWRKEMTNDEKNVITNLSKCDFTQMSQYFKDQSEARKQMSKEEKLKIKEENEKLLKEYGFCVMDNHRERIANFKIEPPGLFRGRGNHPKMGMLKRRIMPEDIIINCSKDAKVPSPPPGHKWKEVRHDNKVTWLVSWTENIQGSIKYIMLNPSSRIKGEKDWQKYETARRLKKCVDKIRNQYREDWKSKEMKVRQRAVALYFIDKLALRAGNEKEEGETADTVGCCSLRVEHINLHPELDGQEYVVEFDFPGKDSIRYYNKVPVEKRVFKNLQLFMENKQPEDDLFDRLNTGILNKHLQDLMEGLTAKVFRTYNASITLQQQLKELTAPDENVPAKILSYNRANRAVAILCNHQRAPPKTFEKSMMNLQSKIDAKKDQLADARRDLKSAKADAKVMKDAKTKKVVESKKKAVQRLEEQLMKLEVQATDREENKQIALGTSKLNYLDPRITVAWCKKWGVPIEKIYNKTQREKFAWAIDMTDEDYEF

Structure (SMILES)	Potency in stabilizing DNA-protein crosslinks (rank order) [1]	Relative resistance of DC3F/C10 cells to the cytotoxic effect ([2]; LD50 of DC3F/C10 divided by LD50 of DC3F, camptothecin 30-min treatment)	RR (relative resistance) ([2]; LD50 of DC3F/C-10 cells divided by LD50 of DC3F cells)	Percent of cell survival without RT [3] [%]	ER (SER per footnote c, sensitization enhancement ratio) ([4]; 1 μM camptothecin 1 h before radiation, at 10% survival)	Dq (width of the shoulder of the radiation survival curve) ([4]; SHMT model fit, FIG. 3B)	RT dose (Gy) at 10% survival ([4]; pre-treated 1 μM camptothecin 1 h, rinsed, then radiation) [Gy]	Radiation Dose (Gy) at 10% Survival (DC3F cells; 0.1 μM) [Gy]	SER (DC3F cells; 0.1 μM)	Radiation Dose (Gy) at 10% Survival (DC3F cells; 1.0 μM) [Gy]	SER (DC3F cells; 1.0 μM)	Radiation Dose (Gy) at 10% Survival ([5]; 1.0 μM) [Gy]	SER ([5]; 1.0 μM)	Radiation Dose (Gy) at 10% Survival ([5]; 10 μM) [Gy]	SER ([5]; 10 μM)	Potency in inducing TOP1-mediated DNA cleavage (nicking of pHOT1) (purified human TOP1)
CC[C@@]1(O)C(=O)OCc2c1cc1n(c2=O)Cc2cc3ccccc3nc2-1 [Camptothecin, Camptothecin lactone, reference compound]	most potent	more than 12 fold	>12	72 ± 5	1.4	drastically reduced	5.0	4.3	1.4	3.9	1.5	5.2	1.0	4.6	1.1	
COc1cc([C@@H]2c3cc4c(cc3[C@@H](O[C@@H]3O[C@@H]5CO[C@@H](C)O[C@H]5[C@H](O)[C@H]3O)[C@H]3COC(=O)[C@H]23)OCO4)cc(OC)c1O [etoposide, reference compound]																no activity in inducing TOP1-mediated nicking of DNA

Source: patent US7037901B1, “Radiosensitization by indolocarbazole derivatives” (priority 2001, dated 2006)
